{"source": "patent US5591773A", "about": "“Inhibition of cataract formation, diseases resulting from oxidative stress, and HIV replication by caffeic acid esters” (priority 1994, dated 1997)", "key": {"[1]": {"system": "TPA-induced edema in SENCAR mouse ears", "experiment": "TPA-induced ear edema", "format": "in vivo, SENCAR mice", "protocol": "FIG. 3. Effect of CAPE on TPA-induced PMN infiltration and edema in SENCAR mouse ears. These were paired experiments, in which both ears of each mouse (8-9/group) were treated with 0.4 nmol TPA±CAPE in 20 μl acetone, and the mice were sacrificed 5 h later. (A) One ear was frozen for subsequent determination of MPO (a measure of PMN infiltration). (B) A punch (6 mm diameter) was taken from the second ear and weighed to measure edematous response (weight of sample minus weight of control). (A) Ears of each group (7-9/group) were separately minced and homogenized under different conditions as described in the \"Experimental Details\" Section, infra. MPO was determined in duplicate. MPO was undetectable in acetone controls and was 4.13±0.0 units/mg protein and 1.18±0.1 units/mg protein in the 2 homogenates of TPA-only-treated mice. CAPE-mediated inhibition was calculated versus the appropriate TPA-only sample, which was homogenized the same way. (B) Weights of ear punches (8-9/group, each determined separately). Acetone controls, 7.2±0.1 mg; TPA in acetone, 16.7±0.7 mg.\nB) Edema Determination. Both ears of SENCAR mice (7-9 mice/group) were treated with 0.4 nmol TPA in 20 μl acetone alone or together with added 0.1 nmol, 0.3 nmol, or […] CAPE. Control mice were treated with acetone. The mice were sacrificed by cervical dislocation 5 h after treatment, and edema was measured on one mouse ear, while the second ear was immediately frozen and later analyzed for PMN infiltration by quantifying myeloperoxidase (MPO) (see below). Ear edema (increased weight of ear punches) was determined as previously described (24). Edema was expressed as mg/6 mm (diameter) ear punch±SE."}, "HMdUrd in epidermal DNA": {"system": "HMdUrd in epidermal DNA", "experiment": "TPA-induced HMdUrd formation in epidermal DNA of SENCAR mice", "format": "in vivo", "protocol": "FIGS. 2A-2D. CAPE-mediated inhibition of TPA-induced oxidative processes in SENCAR mice. Mice were topically treated with 6.5 nmol CAPE 30 min prior to 6.5 nmol TPA, and this regimen was repeated 20 h later. Mice were sacrificed 1 h after the last treatment and the skin removed for determination of: (FIG. 2A) PMN infiltration (by measuring myeloperoxidase (MPO)); (FIG. 2B) H2 O2; (FIG. 2C) HMdUrd (HMdU); and (FIG. 2D) 8-OHdGua (8-OHdG), according to procedures described in the \"Experimental Details\" Section, infra. .quadrature., controls treated with acetone in place of CAPE and TPA; , treatment with acetone followed by TPA; .box-solid., treatment with CAPE followed by TPA. Results are expressed as mean ± SE (bars) from two experiments (2 mice/experiment) in the CAPE series. Data for acetone (ACT)- and TPA-treated mean values were collected from over 20 experiments.\nC) MPO, H2 O2, and Oxidized DNA Bases. SENCAR mice were pretreated with CAPE for 30 min; then 6.5 nmol (4 μg) TPA/mouse topically applied to the dorsal skin. After 20 h, the CAPE and TPA treatment (1x) was repeated (2x treatment). One h after the second treatment, the mice were sacrificed by cervical dislocation, and 12.5-mm punches were obtained to be used separately for MPO and H2 O2 determinations. The remainder of the treated mouse skin or the combined skins from two mice were used for separation of epidermal cells. This was done by heating the skin at 55° C. for 30 s followed by rapid immersion into an ice-cold water bath (45). After the epidermis was scraped off, the presence of oxidized DNA base derivatives was measured in the epidermal DNA. All of these end points were analyzed by published procedures and are briefly described below.\nThe epidermis was homogenized and lysed, and the proteins and RNA were removed by proteinase K and RNase digestions, respectively (20). The DNA was separated and purified on A.S.A.P. columns (Boehringer-Mannheim Biochemicals) and precipitated with isopropyl alcohol.\nThe pellet was then washed with 70% ethyl alcohol, dried, and dissolved in 10 mM Tris.cndot.HCl-100 mM NaCl buffer, pH 7.0, according to the manufacturer's procedure. The DNA was sheared and enzymatically digested to nucleosides, and the hydrolysates were separated by HPLC (Beckman, Model 344) on an ODS column (Altex, 1×25 cm; 5 μm particle size) (50). The fractions that eluted after 30 ml were combined (excluding those containing normal nucleosides) and dried. The oxidized nucleosides were detected by ^3 H-postlabeling with [^3 H]acetic anhydride, followed by HPLC analysis of ^3 H-containing acetates in the presence of marker acetates (50). The results are presented as the number of oxidized nucleosides/10^4 normal bases, unless otherwise stated.\n^a Mice were treated as described in the legend to FIG. 2, except tha"}, "bovine lens (opacity)": {"system": "bovine lens (opacity)", "experiment": "TPA-induced opacity of bovine lens", "format": "cell-based", "conditions": "0.1 μM TPA, 24 h", "protocol": "FIGS. 5A-5C. CAPE-mediated protection of bovine lens from TPA-induced opacity. Lenses were incubated with artificial aqueous humor only (FIG. 5A); incubated with 0.1 μM TPA (FIG. 5B); and pretreated with 1 μM CAPE for 30 min followed by 0.1 μM TPA (FIG. 5C) for 24 h. After incubation, the lenses were photographed against 3-mm grids.\nB) Bovine Lens Bovine lenses were obtained from a New Jersey slaughterhouse 3 h after the animals were sacrificed. Lenses were immediately immersed in artificial aqueous humor (AAH; 130 mMNaCl, 5 mMKCl, 1 mM CaCl2, 0.5 mM MgCl2, 10 mM NaHCO3, 10 mM 4-(2-hydroxyethyl)-1-piperazineethanesulfonic acid (pH 7.3), and 2.5 mM D-glucose). Each of the bovine lenses in AAH (about 15 ml/lens) supplemented with 10 mM azide (a catalase inhibitor) was incubated with various amounts (0-1 μM) TPA at 37° C. for 24 h in the presence or absence of CAPE (1 μM), as described for use of other chemopreventive agents (31). For comparison, the lenses were also incubated with glucose (2.5 mM)/glucose oxidase (25 μM), a H2 O2 -generating system.\nIn some experiments, at the end of incubation [lenses in (a) AAH only (controls), (b) AAH+0.1 μM TPA, and (c) AAH+1 μM CAPE (30 min)+0.1 μM TPA] at 37° C. for 24 h, the lenses were photographed against a 3-mm grid."}, "[2]": {"conditions": "CAPE 6.5 nmol, TPA 6.5 nmol, 2x"}}, "note": "“Also recorded” adds a separate entry of the source.", "data": [{"smiles": "CCCCCCCCCCCCCC(=O)O[C@@H]1[C@@H](C)[C@@]2(O)[C@@H](C=C(CO)C[C@]3(O)C(=O)C(C)=C[C@@H]23)[C@@H]2C(C)(C)[C@]12OC(C)=O", "note": "[TPA, 12-O-tetradecanoylphorbol-13-acetate]", "values": [{"measurement": "weight of ear punches", "setting": "[1]; TPA 0.4 nmol in acetone, 5 h, 6 mm punch", "value": "16.7 ± 0.7", "unit": "mg"}, {"measurement": "HMdUrd/10^4 bases", "setting": "HMdUrd in epidermal DNA; TPA alone, 6.5 nmol, SE 6.4 on next line", "value": "39.4 /10^4 bases"}, {"measurement": "lens opacity (in words)", "setting": "bovine lens (opacity)", "value": "caused opacity of the lens"}]}, {"smiles": "O=C(/C=C/c1ccc(O)c(O)c1)OCCc1ccccc1", "note": "[CAPE, Caffeic acid phenethyl ester]", "values": [{"measurement": "orders of magnitude higher CAPE dose needed for similar inhibition of edema vs PMN infiltration", "setting": "[1]; 1 μmol vs 0.1 nmol CAPE/ear", "value": "4 orders of magnitude"}, {"measurement": "inhibition of TPA-induced ear edema (in words)", "setting": "[1]; CAPE 1 μmol/ear, TPA 0.4 nmol/ear", "value": "inhibits"}, {"measurement": "fold higher CAPE dose required to comparably inhibit ear edema versus PMN infiltration in skin", "setting": "[1]; relative to 6.5 nmol CAPE, same mouse strain, (76)", "value": "> 100", "unit": "fold"}, {"measurement": "HMdUrd/10^4 bases", "setting": "HMdUrd in epidermal DNA; CAPE 6.5 nmol then TPA 6.5 nmol, 2x, (2 experiments), SE 0.6 on next line", "value": "13.1 /10^4 bases"}, {"measurement": "HMdUrd levels (in words)", "setting": "HMdUrd in epidermal DNA; [2]", "value": "below the acetone/acetone controls"}, {"measurement": "decline of HMdUrd formation", "setting": "HMdUrd in epidermal DNA; [2]", "value": 115, "unit": "%"}, {"measurement": "HMdUrd/10^4 bases", "setting": "HMdUrd in epidermal DNA; CAPE 650 nmol then TPA 6.5 nmol, 2x, (2 experiments), SE 10.5 on next line", "value": "30.5 /10^4 bases"}, {"measurement": "prevention of lens opacification (in words)", "setting": "bovine lens (opacity); 1 μM CAPE", "value": "almost completely prevented opacification of the lens; also recorded: suppressed formation of TPA-induced H2 O2 formation and opacification of lenses"}]}]}
